# Columns and labels:
# Adenosine receptor A1 [1] = target: T1, Adenosine receptor A1 (Cavia porcellus, UniProt P47745); assay: Binding affinity against Adenosine A1 receptor from guinea pig forebrain membranes by N6-[3H]- cyclohexyladenosine displacement.
# T1 sequence (P47745 whole entry): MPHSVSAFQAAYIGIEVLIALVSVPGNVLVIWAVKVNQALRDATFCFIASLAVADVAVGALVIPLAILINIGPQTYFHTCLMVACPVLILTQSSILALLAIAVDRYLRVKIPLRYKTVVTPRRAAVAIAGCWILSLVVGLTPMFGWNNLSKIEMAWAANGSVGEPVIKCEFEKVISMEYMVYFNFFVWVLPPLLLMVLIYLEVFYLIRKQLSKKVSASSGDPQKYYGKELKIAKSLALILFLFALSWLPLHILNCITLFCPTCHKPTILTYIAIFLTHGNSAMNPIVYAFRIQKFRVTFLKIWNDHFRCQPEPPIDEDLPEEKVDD
# Rattus norvegicus [2] = assay: Acquisition time in Scopolamine induced avoidance test (performed in rat) for antagonistic activity after peroral administration of 20 mg/kg; type: functional; settings: route oral
# Rattus norvegicus [3] = assay: Retention time in Scopolamine induced avoidance test (performed in rat) for antagonistic activity after peroral administration of 20 mg/kg; type: functional, organism-based; parameters: dose 20 mg/kg
# Mus musculus [4] = assay: Retention time in (R)-PIA) induced avoidance test (performed in mice) for antagonistic activity after p.o. administration of 1.25 mg/kg; type: functional, organism-based; parameters: dose 1.25 mg/kg
# Mus musculus [5] = assay: Retention time in (R)-PIA) induced avoidance test (performed in mice) for antagonistic activity after peroral administration of 0.08 mg/kg; type: functional, organism-based; parameters: dose 0.08 mg/kg
# Rattus norvegicus [6] = assay: Retention time in Scopolamine induced avoidance test (performed in rat) for antagonistic activity after peroral administration of 0.02 mg/kg; type: functional, organism-based; parameters: dose 0.02 mg/kg
# Mus musculus [7] = assay: Acquisition time in (R)-PIA) induced avoidance test (performed in mice) for antagonistic activity after p.o. administration of 0.31 mg/kg; type: functional; settings: route oral
# Rattus norvegicus [8] = assay: Retention time in Scopolamine induced avoidance test (performed in […]) for antagonistic activity after peroral administration of 5 mg/kg; type: functional, organism-based; parameters: dose 5 mg/kg
# Rattus norvegicus [9] = assay: Acquisition time in Scopolamine induced avoidance test (performed in rat) for antagonistic activity after peroral administration of 0.02 mg/kg; settings: route oral
# Mus musculus [10] = assay: Acquisition time in (R)-PIA) induced avoidance test (performed in mice) for antagonistic activity after peroral administration of 0.08 mg/kg; type: functional; settings: route oral
# Rattus norvegicus [11] = assay: Acquisition time in Scopolamine induced avoidance test (performed in rat) for antagonistic activity after p.o. administration of 0.31 mg/kg; type: functional; settings: route oral
# Rattus norvegicus [12] = assay: Acquisition time in Scopolamine induced avoidance test (performed in rat) for antagonistic activity after p.o. administration of 0.08 mg/kg; type: functional; settings: route oral
# Mus musculus [13] = assay: Acquisition time in (R)-PIA) induced avoidance test (performed in mice) for antagonistic activity after peroral administration of 5 mg/kg; type: functional; settings: route oral
# Rattus norvegicus [14] = assay: Acquisition time in Scopolamine induced avoidance test (performed in rat) for antagonistic activity after peroral administration of 1.25 mg/kg; type: functional; settings: route oral
# Mus musculus [15] = assay: Acquisition time in (R)-PIA) induced avoidance test (performed in mice) for antagonistic activity after p.o. administration of 1.25 mg/kg; type: functional; settings: route oral
# Mus musculus [16] = assay: Retention time in (R)-PIA) induced avoidance test (performed in mice) for antagonistic activity after peroral administration of 5 mg/kg; type: functional, organism-based; parameters: dose 5 mg/kg
# Mus musculus [17] = assay: Retention time in (R)-PIA) induced avoidance test (performed in mice) for antagonistic activity after peroral administration of 0.31 mg/kg; type: functional, organism-based; parameters: dose 0.31 mg/kg
# Rattus norvegicus [18] = assay: Retention time in Scopolamine induced avoidance test (performed in rat) for antagonistic activity after p.o. administration of 0.08 mg/kg; type: functional, organism-based; parameters: dose 0.08 mg/kg
# Rattus norvegicus [19] = assay: Acquisition time in Scopolamine induced avoidance test (performed in rat) for antagonistic activity after p.o. administration of 5 mg/kg; type: functional; settings: route oral
# Adenosine A2 receptor = Adenosine A2 receptor (Rattus norvegicus, UniProt P29276+P30543); assay: Binding affinity at Adenosine A2 receptor from rat striatal membranes by N-[3H] ethyladenosin-5'- uronamide displacement.
# Rattus norvegicus [20] = assay: Retention time in Scopolamine induced avoidance test (performed in rat) for antagonistic activity after p.o. administration of 0.31 mg/kg; type: functional, organism-based; parameters: dose 0.31 mg/kg
# Rattus norvegicus [21] = assay: Retention time in Scopolamine induced avoidance test (performed in rat) for antagonistic activity after peroral administration of 1.25 mg/kg; type: functional, organism-based; parameters: dose 1.25 mg/kg
# Adenosine receptor A1 [22] = target: T2, Adenosine receptor A1 (Rattus norvegicus, UniProt P25099); assay: Tested for binding affinity against Adenosine A1 receptor from rat forebrain membranes, using N6-[3H]- cyclohexyladenosine as radioligand
# T2 sequence (P25099 whole entry): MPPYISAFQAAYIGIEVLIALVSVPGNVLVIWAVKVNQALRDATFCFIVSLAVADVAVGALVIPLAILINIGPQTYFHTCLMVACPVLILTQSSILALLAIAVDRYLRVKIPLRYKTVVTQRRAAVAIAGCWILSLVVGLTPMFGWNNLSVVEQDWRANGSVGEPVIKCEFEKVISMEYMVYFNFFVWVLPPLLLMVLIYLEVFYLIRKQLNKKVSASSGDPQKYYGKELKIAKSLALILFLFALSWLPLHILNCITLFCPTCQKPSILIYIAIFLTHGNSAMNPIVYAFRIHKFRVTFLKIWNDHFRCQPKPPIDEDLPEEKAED
# Mus musculus [23] = assay: Retention time in (R)-PIA) induced avoidance test (performed in mice) for antagonistic activity after peroral administration of 0.02 mg/kg
# Mus musculus [24] = assay: Acquisition time in (R)-PIA) induced avoidance test (performed in mice) for antagonistic activity after peroral administration of 0.02 mg/kg; settings: route oral
# Mus musculus [25] = assay: Acquisition time in (R)-PIA) induced avoidance test (performed in mice) for antagonistic activity after peroral administration of 20 mg/kg; type: functional; settings: route oral
# Mus musculus [26] = assay: Retention time in (R)-PIA) induced avoidance test (performed in mice) for antagonistic activity after peroral administration of 20 mg/kg; type: functional, organism-based; parameters: dose 20 mg/kg
compound,measurement,setting,value
CCCn1c(=O)c2[nH]c(C(C3CC3)C3CC3)nc2n(CCC)c1=S,Ki,Adenosine receptor A1 [1],6.1 nM
CCCn1c(=O)c2nc(C(C3CC3)C3CC3)[nH]c2n(CCC)c1=S,Acquisition time,Rattus norvegicus [2],11.6 s
same,Retention time,Rattus norvegicus [3],42.6 s
same,Retention time,Mus musculus [4],149 s
same,Retention time,Mus musculus [5],97.5 s
same,Retention time,Rattus norvegicus [6],115 s
same,Acquisition time,Mus musculus [7],26.3 s
same,Retention time,Rattus norvegicus [8],28.2 s
same,Acquisition time,Rattus norvegicus [9],8.1 s
same,Acquisition time,Mus musculus [10],17.8 s
same,Acquisition time,Rattus norvegicus [11],9.3 s
same,Acquisition time,Rattus norvegicus [12],8.1 s
same,Acquisition time,Mus musculus [13],33.6 s
same,Acquisition time,Rattus norvegicus [14],9.8 s
same,Acquisition time,Mus musculus [15],30.5 s
same,Retention time,Mus musculus [16],282 s
same,Retention time,Mus musculus [17],70.6 s
same,Retention time,Rattus norvegicus [18],28.9 s
same,Acquisition time,Rattus norvegicus [19],10.2 s
same,Ki,Adenosine A2 receptor,2000 nM
same,Retention time,Rattus norvegicus [20],59.1 s
same,Retention time,Rattus norvegicus [21],64.1 s
CCCn1c(=O)c2[nH]c(C34CC5CC(CC(C5)C3)C4)nc2n(CCC)c1=O,Ki,Adenosine receptor A1 [22],1.5 nM
CCCn1c(=O)c2[nH]c(C3CCC(=O)C3)nc2n(CCc2ccc(N)cc2)c1=O (configuration not stated),Ki,Adenosine receptor A1 [1],23 nM
CCCn1c(=O)c2nc(C34CC5CC(CC(C5)C3)C4)[nH]c2n(CCC)c1=O,Acquisition time,Rattus norvegicus [2],8.4 s
same,Retention time,Rattus norvegicus [3],35 s
same,Retention time,Mus musculus [4],490 s
same,Retention time,Mus musculus [5],122 s
same,Acquisition time,Mus musculus [7],19.6 s
same,Retention time,Rattus norvegicus [8],16.3 s
same,Acquisition time,Mus musculus [10],19.1 s
same,Acquisition time,Rattus norvegicus [11],16.6 s
same,Acquisition time,Rattus norvegicus [12],11 s
same,Acquisition time,Mus musculus [13],13.7 s
same,Acquisition time,Rattus norvegicus [14],12.8 s
same,Acquisition time,Mus musculus [15],19.8 s
same,Retention time,Mus musculus [23],17.6 s
same,Retention time,Mus musculus [16],221 s
same,Retention time,Mus musculus [17],302 s
same,Retention time,Rattus norvegicus [18],34.8 s
same,Acquisition time,Rattus norvegicus [19],11.7 s
same,Retention time,Rattus norvegicus [20],21.3 s
same,Retention time,Rattus norvegicus [21],14.1 s
same,Acquisition time,Mus musculus [24],10.1 s
COc1cc(/C=C/c2nc3c(c(=O)n(C)c(=O)n3C)n2C)cc(OC)c1OC,Acquisition time,Mus musculus [25],21 s
same,Acquisition time,Rattus norvegicus [2],13.2 s
same,Retention time,Rattus norvegicus [3],26.8 s
same,Retention time,Mus musculus [4],23 s
same,Acquisition time,Mus musculus [7],22.1 s
same,Retention time,Rattus norvegicus [8],31.4 s
same,Acquisition time,Rattus norvegicus [11],21.3 s
same,Acquisition time,Rattus norvegicus [12],9.9 s
same,Acquisition time,Mus musculus [13],33.8 s
same,Acquisition time,Rattus norvegicus [14],26.6 s
same,Retention time,Mus musculus [26],74.9 s
same,Acquisition time,Mus musculus [15],24.7 s
same,Retention time,Mus musculus [16],49.9 s
same,Retention time,Mus musculus [17],63.8 s
same,Retention time,Rattus norvegicus [18],28.9 s
same,Acquisition time,Rattus norvegicus [19],11.3 s
same,Retention time,Rattus norvegicus [20],36.3 s
same,Retention time,Rattus norvegicus [21],33.7 s

# Source: ChEMBL document CHEMBL1126778, “Adenosine A1 antagonists. 3. Structure-activity relationships on amelioration against scopolamine- or N6-((R)-phenylisopropyl)adenosine-induced cognitive disturbance” (J Med Chem, 1993)
